According to US4317912A, “Tetracyclic indole derivatives” (Farmitalia Carlo Erba S.p.A., priority 1979, dated 1982):

Legend:
[1] = Acute (orientative) oral toxicity in mice; conditions: mouse, in vivo
Source text: The male mice for each group were orally treated with drugs at different dose levels for the determination of orientative toxicity.

[2] = system: spontaneously hypertensive rats (Okamoto strain); assay: Anti-hypertensive activity in conscious spontaneously hypertensive rats (Okamoto), carotid artery catheter; type: in vivo, rat (spontaneously hypertensive; conditions: for Change in blood pressure after treatment, 30' / Change in heart rate after treatment, 30' / Change in blood pressure after treatment, 60' / Change in heart rate after treatment, 60' / Change in blood pressure after treatment, 120' / Change in heart rate after treatment, 120' / Change in blood pressure after treatment, 240' / Change in heart rate after treatment, 240' / Change in blood pressure after treatment, 360' / Change in heart rate after treatment, 360': mean of 6 animals; for Effect on heart rate: oral (Table 4)
Method: Blood pressure recordings were made in conscious hypertensive unrestrained rats weighing approximately 300 g, via a catheter cronically inserted into the left common carotid artery. Implantation of arterial cannula was made under sodium pentobarbital anesthesia (50 mg/kg i.p.). A 1 cm long incision was made through the previously shaved ventral surface of the neck and the tissues overlying the trachea parted by blunt dissection to reveal the carotid artery. The polyethylene catheter used was made with PE 50 tubing, previously filled with saline containing 250 I.U./ml heparin. The tip of the cannula was pushed at least 2 cm inside the vessel toward the heart. The cannula was then firmly tied and passed beneath the skin to emerge from a small incision in the back of the neck. During the postoperative period and before the start of each recording session, the cannula was flushed through daily with saline containing heparin (250 U.I./ml). The experiments were performed two days after surgery. Drugs were administered by gastric gavage.

[3] = system: spontaneously hypertensive male rats, strain MHS; assay: Anti-hypertensive activity in spontaneously hypertensive rats (MHS), blood pressure and heart rate measured at the tail; type: in vivo, rat (spontaneously hypertensive; conditions: for Change in BP, 1st day, 1 hr after dose / Change in HR, 1st day, 1 hr after dose / Change in BP, 1st day, 5 hrs after dose / Change in HR, 1st day, 5 hrs after dose / Change in BP, 4th day, 1 hr after dose / Change in HR, 4th day, 1 hr after dose / Change in BP, 4th day, 5 hrs after dose / Change in HR, 4th day, 5 hrs after dose: mean of 4 animals; for Tolerance after repeated administration: four days, 355/1226 3 mg/kg, 355/1225 and 355/1229 5 mg/kg per os
Method: Four spontaneously hypertensive male rats, strains MHS, weighing 250-300 g for each group were used.
The animals were treated for four consecutive days. Drugs were administered by gastric gavage, suspended in 5% arabic gum (0.2 ml/100 g body weight). Blood pressure (BP) and heart rate (HR) were measured at the tail by BP Recorder W+W. Blood pressure and heart rate were measured on the 1st and 4th day of treatment 1 hour before and 1 and 5 hours after drug administration.
*Data of LD50 from the literature. In Tables 1 and 2 are reported
the results of the study of the activity of compounds 355/1165 and
355/1166 upon the BP and HR (measured indirectly by means of a tail cuff)
of spontaneous hypertensive rats, MHS strain (4 rats each group). The
compounds were given orally, once a day for 4 consecutive days.

[4] = MHS rats, 0.5 mg/kg os, 1st day
[5] = MHS rats, 0.5 mg/kg os, 4th day

CN1CC(CC(C#N)C(N)=O)C2Cc3cccc4[nH]cc(c34)CC21 (stereo not drawn) [355/1165, 2-Cyano-3-[trans-5(10→9)abeo-6-methyl-ergoline-8β]-propionamide]
LD50 at 168 h [1]: > 1000 mg/kg | Change in blood pressure after treatment, 30' ([2]; 1 mg/kg os): -21 mmHg | Change in heart rate after treatment, 30' ([2]; 1 mg/kg os): -25 b/min | Change in blood pressure after treatment, 60' ([2]; 1 mg/kg os): -29 mmHg | Change in heart rate after treatment, 60' ([2]; 1 mg/kg os): -45 b/min | Change in blood pressure after treatment, 120' ([2]; 1 mg/kg os): -33 mmHg | Change in heart rate after treatment, 120' ([2]; 1 mg/kg os): -52 b/min | Change in blood pressure after treatment, 240' ([2]; 1 mg/kg os): -26 mmHg | Change in heart rate after treatment, 240' ([2]; 1 mg/kg os): -8 b/min | Change in blood pressure after treatment, 360' ([2]; 1 mg/kg os): -23 mmHg | Change in heart rate after treatment, 360' ([2]; 1 mg/kg os): +18 b/min | Activity compared with hydralazine ([2]; 1 mg/kg per os): 3 times | Hypotensive activity ([2]; 1 mg/kg per os): marked and long lasting hypotensive activity | Effect on heart rate [2]: slight bradycardia and never tachicardia | Change in BP, 1st day, 1 hr after dose [3, 4]: -13 mmHg | Change in HR, 1st day, 1 hr after dose [3, 4]: -25 b/min | Change in BP, 1st day, 5 hrs after dose [3, 4]: -17 mmHg | Change in HR, 1st day, 5 hrs after dose [3, 4]: -25 b/min | Change in BP, 4th day, 1 hr after dose [3, 5]: -17 mmHg | Change in HR, 4th day, 1 hr after dose [3, 5]: -30 b/min | Change in BP, 4th day, 5 hrs after dose [3, 5]: -3 mmHg | Change in HR, 4th day, 5 hrs after dose [3, 5]: -35 b/min | Change in BP, 1st day, 1 hr after dose ([3]; MHS rats, 1 mg/kg os, 1st day): -15 mmHg | Change in HR, 1st day, 1 hr after dose ([3]; MHS rats, 1 mg/kg os, 1st day): -20 b/min | Change in BP, 1st day, 5 hrs after dose ([3]; MHS rats, 1 mg/kg os, 1st day): -19 mmHg | Change in HR, 1st day, 5 hrs after dose ([3]; MHS rats, 1 mg/kg os, 1st day): -15 b/min | Change in BP, 4th day, 1 hr after dose ([3]; MHS rats, 1 mg/kg os, 4th day): -30 mmHg | Change in HR, 4th day, 1 hr after dose ([3]; MHS rats, 1 mg/kg os, 4th day): -27 b/min | Change in BP, 4th day, 5 hrs after dose ([3]; MHS rats, 1 mg/kg os, 4th day): -42 mmHg | Change in HR, 4th day, 5 hrs after dose ([3]; MHS rats, 1 mg/kg os, 4th day): -20 b/min | Change in BP, 1st day, 1 hr after dose ([3]; MHS rats, 2 mg/kg os, 1st day): -25 mmHg | Change in HR, 1st day, 1 hr after dose ([3]; MHS rats, 2 mg/kg os, 1st day): -47 b/min | Change in BP, 1st day, 5 hrs after dose ([3]; MHS rats, 2 mg/kg os, 1st day): -53 mmHg | Change in HR, 1st day, 5 hrs after dose ([3]; MHS rats, 2 mg/kg os, 1st day): -80 b/min | Change in BP, 4th day, 1 hr after dose ([3]; MHS rats, 2 mg/kg os, 4th day): -33 mmHg | Change in HR, 4th day, 1 hr after dose ([3]; MHS rats, 2 mg/kg os, 4th day): -48 b/min | Change in BP, 4th day, 5 hrs after dose ([3]; MHS rats, 2 mg/kg os, 4th day): -45 mmHg | Change in HR, 4th day, 5 hrs after dose ([3]; MHS rats, 2 mg/kg os, 4th day): -55 b/min | Effect on BP ([3]; MHS rats, 0.5, 1 and 2 mg/kg per os, 1st and 4th day): significantly lowers BP on the 1st and 4th day after the treatment | Antihypertensive activity compared with Hydralazine, 1st day ([3]; MHS rats, 1st day, 355/1165 2 mg/kg, 355/1226 3 mg/kg per os vs Hydralazine 3 mg/kg per os): more marked antihypertensive activity | Antihypertensive effect compared with Hydralazine, 4th day ([3]; MHS rats, 4th day, 355/1165 2 mg/kg, 355/1226 3 mg/kg per os vs Hydralazine 3 mg/kg per os): even greater effect | Tolerance after repeated administration ([3]; MHS rats, 355/1165 2 mg/kg): tolerance does not occur after repeated administration | Activity compared with α-methyl-DOPA ([3]; MHS rats, 355/1165 2 mg/kg, 355/1226 3 mg/kg per os): 50 times

CCOC(=O)C(C#N)CC1CN(C)C2Cc3c[nH]c4cccc(c34)CC12 (stereo not drawn) [355/1166, 2-Cyano-3-[trans-5(10→9)abeo-6-methyl-ergoline-8β]-propionic acid ethyl ester]
LD50 at 168 h [1]: > 800 mg/kg | Change in blood pressure after treatment, 30' ([2]; 5 mg/kg os): 0 mmHg | Change in heart rate after treatment, 30' ([2]; 5 mg/kg os): -20 b/min | Change in blood pressure after treatment, 60' ([2]; 5 mg/kg os): -3 mmHg | Change in heart rate after treatment, 60' ([2]; 5 mg/kg os): -20 b/min | Change in blood pressure after treatment, 120' ([2]; 5 mg/kg os): -15 mmHg | Change in heart rate after treatment, 120' ([2]; 5 mg/kg os): -35 b/min | Change in blood pressure after treatment, 240' ([2]; 5 mg/kg os): -18 mmHg | Change in heart rate after treatment, 240' ([2]; 5 mg/kg os): -15 b/min | Change in blood pressure after treatment, 360' ([2]; 5 mg/kg os): -10 mmHg | Change in heart rate after treatment, 360' ([2]; 5 mg/kg os): -20 b/min | Effectiveness compared with the reference compound (hydralazine) ([2]; 5 mg/kg per os): less effective than the reference compound | Effect on heart rate [2]: slight bradycardia and never tachicardia | Change in BP, 1st day, 1 hr after dose ([3]; MHS rats, 5 mg/kg os, 1st day): -8 mmHg | Change in HR, 1st day, 1 hr after dose ([3]; MHS rats, 5 mg/kg os, 1st day): -25 b/min | Change in BP, 1st day, 5 hrs after dose ([3]; MHS rats, 5 mg/kg os, 1st day): -20 mmHg | Change in HR, 1st day, 5 hrs after dose ([3]; MHS rats, 5 mg/kg os, 1st day): -25 b/min | Change in BP, 4th day, 1 hr after dose ([3]; MHS rats, 5 mg/kg os, 4th day): -22 mmHg | Change in HR, 4th day, 1 hr after dose ([3]; MHS rats, 5 mg/kg os, 4th day): -35 b/min | Change in BP, 4th day, 5 hrs after dose ([3]; MHS rats, 5 mg/kg os, 4th day): -26 mmHg | Change in HR, 4th day, 5 hrs after dose ([3]; MHS rats, 5 mg/kg os, 4th day): -20 b/min | Effect on BP ([3]; MHS rats, 5 mg/kg per os): lowers BP at each recording session, but its effect is more pronounced after the 4th dose | Effectiveness compared with α-methyl-DOPA ([3]; MHS rats, 5 mg/kg per os): 20 times | Hypotensive effect compared with Hydralazine, after 4th administration ([3]; MHS rats, 1st and 5th hours after 4th administration, 5 mg/kg per os vs Hydralazine 3 mg/kg per os): greater hypotensive effect | Activity compared with Hydralazine, 1st day ([3]; MHS rats, 1st day, 5 mg/kg per os vs Hydralazine 3 mg/kg per os): less pronounced activity than Hydralazine

CN1CC(CC(C#N)C(N)=O)C2=Cc3cccc4[nH]cc(c34)CC21 (stereo not drawn) [355/1229, 2-Cyano-3-[5(10→9)abeo-9,10-didehydro-6-methyl-ergoline-8β]-propionamide]
LD50 at 168 h [1]: 600 mg/kg | Change in BP, 1st day, 1 hr after dose ([3]; MHS rats, 1 mg/kg os, 1st day): -26 mmHg | Change in HR, 1st day, 1 hr after dose ([3]; MHS rats, 1 mg/kg os, 1st day): +25 b/min | Change in BP, 1st day, 5 hrs after dose ([3]; MHS rats, 1 mg/kg os, 1st day): -19 mmHg | Change in HR, 1st day, 5 hrs after dose ([3]; MHS rats, 1 mg/kg os, 1st day): -2 b/min | Change in BP, 4th day, 1 hr after dose ([3]; MHS rats, 1 mg/kg os, 4th day): -21 mmHg | Change in HR, 4th day, 1 hr after dose ([3]; MHS rats, 1 mg/kg os, 4th day): -18 b/min | Change in HR, 4th day, 5 hrs after dose ([3]; MHS rats, 1 mg/kg os, 4th day): -53 b/min | Change in BP, 1st day, 1 hr after dose ([3]; MHS rats, 5 mg/kg os, 1st day): -26 mmHg | Change in HR, 1st day, 1 hr after dose ([3]; MHS rats, 5 mg/kg os, 1st day): -40 b/min | Change in BP, 1st day, 5 hrs after dose ([3]; MHS rats, 5 mg/kg os, 1st day): -20 mmHg | Change in HR, 1st day, 5 hrs after dose ([3]; MHS rats, 5 mg/kg os, 1st day): -35 b/min | Change in BP, 4th day, 1 hr after dose ([3]; MHS rats, 5 mg/kg os, 4th day): -36 mmHg | Change in HR, 4th day, 1 hr after dose ([3]; MHS rats, 5 mg/kg os, 4th day): -50 b/min | Change in BP, 4th day, 5 hrs after dose ([3]; MHS rats, 5 mg/kg os, 4th day): -45 mmHg | Change in HR, 4th day, 5 hrs after dose ([3]; MHS rats, 5 mg/kg os, 4th day): -55 b/min | Activity compared with Hydralazine and α-methyl-DOPA ([3]; MHS rats, 5 mg/kg per os, 1st and 4th day, vs Hydralazine (3 mg/kg per os) and α-methyl-DOPA): greater activity | Effect on blood pressure ([3]; MHS rats, 1 and 5 mg/kg orally, 1st and 4th day): both dosages reduce BP in a similar way on the 1st day, when during the 4th day the decrease of BP is dose-dependent | Tolerance after repeated administration ([3]; MHS rats, 355/1165 2 mg/kg): No tolerance occurs
